Patent US6730775B1, “Methods for limiting scar and adhesion formation” (University of Southern California, priority 1999, dated 2004)
“Also recorded” adds a separate entry of the source. Where no end group is shown, it is not given here. [ ]: non-standard residue; d: D form. Nle = CCCC[C@H](N)C(=O)O

Experiments:
[1] = test system: full thickness incision wounds; test: Rat full thickness incision model (Example 2); assay type: in vivo, Sprague Dawley rats; conditions: for early inflammation and wound dehiscence / number of incisions that were free of scar / overall scar formation: into the subcutaneous space prior to closure with DermaBond; for early inflammation and wound dehiscence: FIG. 1, day 5; for number of incisions that were free of scar: later time points after healing, FIG. 2, days 14, 19, 21; for overall scar formation: later time points, FIG. 3, scar score rank days 14 and 19; for healing time / number of incisions with no scar by gross observations: repeated; for healing time: systemic administration (especially pretreatment with 100 μg/kg body weight/day of 9GD), FIGS. 4-6; for number of incisions with no scar by gross observations: systemic administration, FIGS. 7-9, days 14 and 21
Procedure: This study was designed to compare the effect of a daily administration of AII(1-7) and 9GD on the healing of full thickness incision wounds in a rat model. For topical administration, the viscous vehicle was prepared from carboxymethylcellulose (CMC sodium salt, low viscosity, Sigma Chemical CO., St. Louis, Mo. (Lot number 34H0310)), consisting of 10% low viscosity CMC in 0.05 M phosphate buffer, pH 7.2, and was sterilized by autoclaving followed by mixing with sterile peptide solutions or DermaBond (provided by Ethicon, Inc.), AII(1-7) and 9GD were prepared by Bachem (Torrence, Calif.) under GMP conditions.
During the experimental period, Sprague Dawley rats (5 per group) were used in this study. The rats were housed one per cage in the University of Southern California vivarium on a 12:12 hour light/dark cycle. Food and water were available ad libitum.
On the dorsal surface of the rats, two full thickness incisions (approximately 3 cm in length) were made on a prepared surface under aseptic conditions. After injury, placebo or AII(1-7) (100 μg/wound [topical], or 100 μg/kg body weight [systemic]) or 9GD (10, 100, or 500 μg/wound [topical], or 10, 100, or 500 μg/kg body weight [systemic]) was administered. The wound was sutured closed (if the peptide was not given in an adhesive base) or was closed with […] (in groups that have the peptide administered with cyanoacrylate (DermaBond™)).
The animals were monitored for breathing, urination, and movement during the postoperative interval. Postoperative analgesic included twice daily administration of bupronex for 3 days post-operation. […] On day 21, the rats were euthanized by CO2 asphyxiation and tissues were harvested for histologic preparation.
Scar formation was assessed grossly, including assessment of inflammationh, dehiscence, scabbing, healing (defined as % of incision healed), and scarring. Inflammation, dehiscence, scabbing, and scarring were assessed on a 4 point scale (0, 1, 2, or 3) for none, mild, moderate, and severe, respectively. The severity of the scar was defined by the appearance of disruption, the contour of the healing site, the raising of the healing area, and the ability to note by gross observation that the wound had been made.

[2] = test system: rabbit corneal eye; conditions: rabbit corneal eye model; cited from earlier work
[3] = test system: cultured cells that are involved in wound repair; conditions: cited from earlier work
[4] = test system: chick chorioallantoic membrane; conditions: chick chorioallantoic membrane model; cited from earlier work
[5] = test system: primary human keratinocytes; conditions: via a non-AT1, non-AT2 receptor; cited from earlier work
[6] = test system: wound tissue; conditions: application to wound tissue; cited from earlier work
[7] = test system: 2 cm midline laparotomy incision; test: Anti-scarring effect after rat laparotomy (Example 1); assay type: in vivo, Sprague Dawley rats; conditions: 100 μg/kg/day subcutaneously, 3 days prior to surgery and 11 days until necropsy; 11 day post-operative observation
Procedure: Female Sprague Dawley rats, weighing between 175 and 225 grams each, were used in this study. The rats were quarantined at least two days prior to surgery. The rats were housed in the University of Southern California vivarium on a 12:12 hour light/dark cycle. Food and water were available ad libitum except in the immediate postoperative period.
The rats underwent a standardized procedure for laparotomy (intramuscular anesthesia with ketamine/rompum, shaving with animal clippers, betadine scrub, alcohol scrub). A 2 cm incision was then made on the midline. A double-walled gelatin capsule was placed on the right side of the abdomen through the incision. The animals were subcutaneously injected with the peptides (detailed below) (100 μg/kg/day) for 3 days prior to surgery, and then for 11 days until necropsy. The abdominal wall and skin was then sutured closed using two layers of 4-0 Ethilon suture. Following surgery, the rats received analgesic for three days and were observed twice daily for signs of morbidity and mortality.

[8] = Unspecified test of effectiveness of AII fragments; conditions: test not specified
[9] = single dose in CMC in the subcutaneous space, FIG. 10
[10] = single dose in CMC in the subcutaneous space, FIG. 11

Substance | early inflammation and wound dehiscence [1] | number of incisions that were free of scar [1] | overall scar formation [1] | healing time [1] | number of incisions with no scar by gross observations [1] | healing [1, 9] | scar formation [1, 10] | healing ([1]; single dose, systemic) | scar formation ([1]; single dose, systemic) | scar apparent upon gross observation [7] | wound closure [7] | effectiveness [8] | other results
Asp-Arg-Val-Tyr-Ile-His-Pro (DRVYIHP) [AII(1-7)] | reduced | increased | increased | accelerated | increased | accelerated healing | reduced scar formation | did not accelerate healing | did reduce scar formation |  |  |  | 
Asp-Arg-Val-Tyr-Ile-His-Pro-Phe [AII] |  |  |  |  |  |  |  |  |  |  |  |  | angiogenic [2]: angiogenic; mitogenesis and chemotaxis [3]: increases; release of growth factors and extracellular matrices [3]: increases; angiogenic [4]: angiogenic; proliferation of primary human keratinocytes [5]: stimulate proliferation; rate of wound healing [6]: significantly increases
DR(nor)YIHP (DR[Nle]YIHP) [9GD] | reduced | increased | increased | accelerated | increased | accelerated healing | reduced scar formation | did not accelerate healing | did reduce scar formation | no scar was apparent | complete |  | 
DRKYIHP [5GD] |  |  |  |  |  |  |  |  |  | no scar was apparent | complete |  | 
His-Pro-Phe (HPF) [AII(6-8)] |  |  |  |  |  |  |  |  |  |  |  | not to be effective | 
Tyr-Ile-His-Pro-Phe (YIHPF) [AII(4-8)] |  |  |  |  |  |  |  |  |  |  |  | not to be effective; also recorded: ineffective | 
